Measured values taken from ChEMBL document CHEMBL5376010, “Formation of Trideuteromethylated Artifacts of Pyrrole-Containing Natural Products” (J Nat Prod, 2024).
The source made the active and inactive calls. The calls are words filed in the database; no cut-off is given here.

How the values were obtained:
[1] = system: Panel NCI-60 (60 carcinoma cell lines); test: Anticancer activity against human Panel NCI-60 (60 carcinoma cell lines) assessed as cell growth inhibition at 10 uM; assay type: functional, cell-based
[2] = system: Panel NCI-60 (60 carcinoma cell lines); test: Anticancer activity against human Panel NCI-60 (60 carcinoma cell lines) assessed as growth inhibition; assay type: functional
[3] = Anticancer activity against human MCC26 cells assessed as inhibition of cell growth; assay type: functional, cell-based
[4] = Anticancer activity against human MKL-1 cells assessed as inhibition of cell growth; assay type: functional, cell-based
[5] = Anticancer activity against human WaGa cells assessed as inhibition of cell growth; assay type: functional, cell-based
[6] = Anticancer activity against human UISO cells assessed as inhibition of cell growth; assay type: functional, cell-based
[7] = Cytotoxicity against human HaCaT cells assessed as inhibition of cell growth; assay type: toxicity, cell-based
[8] = Anticancer activity against human MCC13 cells assessed as inhibition of cell growth; assay type: functional, cell-based
Homo sapiens [9] = species on record: Homo sapiens; test: Selectivity ratio of IC50 for human HaCaT cells to IC50 for human WaGa cells; conditions: tested as the 2H-labelled form
Homo sapiens [10] = species on record: Homo sapiens; test: Selectivity ratio of IC50 for human HaCaT cells to IC50 for human MKL-1 cells; conditions: tested as the 2H-labelled form
Homo sapiens [11] = species on record: Homo sapiens; test: Selectivity ratio of IC50 for human HaCaT cells to IC50 for human MCC13 cells; conditions: tested as the 2H-labelled form
Homo sapiens [12] = species on record: Homo sapiens; test: Selectivity ratio of IC50 for human HaCaT cells to IC50 for human MCC26 cells; conditions: tested as the 2H-labelled form
Homo sapiens [13] = species on record: Homo sapiens; test: Selectivity ratio of IC50 for human HaCaT cells to IC50 for human UISO cells; conditions: tested as the 2H-labelled form

Cn1cnc(S[C@H]2[C@H]3C(=O)C=C4S[C@H]5C[C@]42C2=C(N5)C(=O)c4[nH]cc5c4C2=[N+]3CC5)c1C[C@H](N)C(=O)O
Activity [1]: inactive

Cc1[nH]c2c3c1CC[N+]1=C3C3=C(N[C@@H]4C[C@@]35C(=CC(=O)[C@@H]1[C@@H]5Sc1ncn(C)c1C[C@H](N)C(=O)O)S4)C2=O
Activity ([1]; tested as the 2H-labelled form): inactive

O=C1C(Br)=CC2(C=C1Br)CCNC1=C2C2=NCCc3c[nH]c(c32)C1=O [DISCORHABDIN C]
GI50 [2]: 0.13 µM

O=C([O-])C(F)(F)F.[2H]C([2H])([2H])c1[nH]c2c3c1CC[N+]1=C3C3=C(N[C@@H]4C[C@@]35C(=CC(=O)[C@@H]1[C@@H]5O)S4)C2=O
IC50 [3]: 1.99 µM | IC50 [4]: 0.25 µM | IC50 [5]: 0.72 µM | IC50 [6]: 1.41 µM | IC50 [7]: 6.2 µM | IC50 [8]: 2.5 µM | GI50 [2]: 1.65 µM

Cc1[nH]c2c3c1CC[N+]1=C3C3=C(N[C@@H]4C[C@@]35C(=CC(=O)[C@@H]1[C@@H]5O)S4)C2=O
Ratio IC50 (Homo sapiens [9]): 13 | Ratio IC50 (Homo sapiens [10]): 13 | Ratio IC50 (Homo sapiens [11]): 3 | Ratio IC50 (Homo sapiens [12]): 3 | GI50 [2]: 5.75 µM | Ratio IC50 (Homo sapiens [13]): 3

O=C1C(Br)=CC2(C=C1Br)CCNC1=C2C2=NCCc3c(Br)[nH]c(c32)C1=O
GI50 [2]: 0.42 µM

O=C1C2=C3C4=[N+](CCc5c[nH]c1c54)[C@@H]1C(=O)C=C4S[C@@H](C[C@@]43[C@H]1O)N2 [DISCORHABDIN L]
GI50 [2]: 0.79 µM
